According to ChEMBL document CHEMBL1806393, “Cytotoxic oxasqualenoids from the red alga Laurencia viridis” (Eur J Med Chem, 2011):
Active and inactive are the calls of the source. The rule behind the calls is not given here.

Experiments:
Jurkat [1] = assay: Cytotoxicity against human Jurkat cells assessed as inhibition of cell proliferation after 72 hrs by XTT assay; type: functional, cell-based
[2] = Cytotoxicity against human MM144 cells assessed as inhibition of cell proliferation after 72 hrs by XTT assay; type: functional, cell-based
HeLa = assay: Cytotoxicity against human HeLa cells assessed as inhibition of cell proliferation after 72 hrs by XTT assay; type: functional, cell-based
[3] = Cytotoxicity against human CADO-ES1 cells assessed as inhibition of cell proliferation after 72 hrs by XTT assay; type: functional, cell-based; settings: CADO-ES1, 72 h
[4] = Inhibition of […] using p-nitrophenyl phosphate as substrate at <100 uM by UV/visible absorption spectroscopic analysis
[5] = Solubility of the compound in water; type: physicochemical; settings: buffer
Jurkat [6] = assay: Induction of apoptosis in human Jurkat cells assessed as DNA breakdown in sub-G1 phase at 20 uM after 24 to 72 hrs using propidium iodide staining by flow cytometry; type: functional, cell-based
Jurkat [7] = assay: Cell cycle arrest in human Jurkat cells assessed as increase in apoptotic cells at sub-G1 phase at 20 uM after 72 hrs using propidium iodide staining by flow cytometry; type: functional, cell-based

Row | SMILES | inhibition [4] | solubility [5] | IC50 (Jurkat [1]) | IC50 [2] | IC50 (HeLa) | IC50 [3] | Activity (Jurkat [6]) | Activity (Jurkat [7])
1 | CC(C)(O)[C@H]1CC[C@](C)([C@H](CCC(O)(CO)[C@H]2CC[C@H]3O[C@@H]([C@]4(C)CC[C@@H](Br)C(C)(C)O4)CC[C@]3(C)O2)OS(=O)(=O)O)O1 (stereo partly drawn) | inactive | Insoluble | 6.9 µM | 13.5 µM | 27.5 µM | 11 µM | – | –
2 | CC(C)(O)[C@H]1CC[C@](C)([C@@H](O)CCC(O)(CO)[C@H]2CC[C@H]3O[C@@H]([C@]4(C)CC[C@@H](Br)C(C)(C)O4)CC[C@]3(C)O2)O1 (stereo partly drawn) | inactive | Insoluble | 4.6 µM | 21 µM | 24 µM | 18 µM | – | –
3 | C=C(CC[C@H](O)[C@@]1(C)CC[C@H](C(C)(C)O)O1)[C@H]1CC[C@H]2O[C@@H]([C@]3(C)CC[C@@H](Br)C(C)(C)O3)CC[C@]2(C)O1 [DEHYDROTHYRSIFEROL] | inactive | Insoluble | 13.5 µM | 21.5 µM | 34.5 µM | 12 µM | Active | Active
4 | C=C(CC[C@H](OS(=O)(=O)O)[C@@]1(C)CC[C@H](C(C)(C)O)O1)[C@H]1CC[C@H]2O[C@@H]([C@]3(C)CC[C@@H](Br)C(C)(C)O3)CC[C@]2(C)O1 | inactive | Insoluble | 12 µM | 18 µM | 33 µM | 27 µM | Active | Active
5 | CC(C)(O)[C@H]1CC[C@](C)([C@H](CCC(O)(COS(=O)(=O)O)[C@H]2CC[C@H]3O[C@@H]([C@]4(C)CC[C@@H](Br)C(C)(C)O4)CC[C@]3(C)O2)OS(=O)(=O)O)O1 (stereo partly drawn) | inactive | Insoluble | 8.6 µM | 31.5 µM | 35.5 µM | 17 µM | – | –

Further lines, with some results ahead:

Row | inhibition [4] | solubility [5] | SMILES | IC50 (Jurkat [1]) | IC50 [2] | IC50 (HeLa) | IC50 [3] | Activity (Jurkat [6]) | Activity (Jurkat [7])
6 | inactive | – | CC(C)(O)[C@H]1CC[C@](C)([C@@H](O)CC[C@@](O)(CO)C2=CC[C@H]3O[C@@H]([C@]4(C)CC[C@@H](Br)C(C)(C)O4)CC[C@]3(C)O2)O1 | – | – | – | – | – | –
7 | inactive | Insoluble | CC(C)(O)[C@H]1CC[C@](C)([C@@H](O)CC[C@@H](CO)C2=CC[C@H]3O[C@@H]([C@]4(C)CC[C@@H](Br)C(C)(C)O4)CC[C@]3(C)O2)O1 | 7.55 µM | 7.3 µM | 23 µM | 16.5 µM | – | –
8 | inactive | Insoluble | CC(C)(O)[C@H]1CC[C@](C)([C@@H](O)CC[C@@](O)(CO)C(=O)[C@H](O)C[C@H]2O[C@@H]([C@]3(C)CC[C@@H](Br)C(C)(C)O3)CC[C@]2(C)O)O1 | 7.2 µM | 15.5 µM | 26 µM | 3.1 µM | – | –
9 | inactive | Insoluble | CC(C)(O)[C@H]1CC[C@](C)([C@@H](O)CC[C@@](O)(CO)C(=O)CC[C@H]2O[C@@H]([C@]3(C)CC[C@@H](Br)C(C)(C)O3)CC[C@]2(C)O)O1 [PRETHYRSENOL A] | 8.15 µM | 10.2 µM | 29 µM | 14.5 µM | – | –
